Measured values: US9708305B2, “Substituted 1,2,3,4-tetrahydroisoquinoline derivatives for the treatment of hormone-dependent diseases” (UNIVERSITÉ LAVAL, priority 2013, dated 2017)

How the values were obtained:
Format in all cases: cell-based
[1] = tested on: alkaline phosphatase activity in Saos-2 cells; assay: Alkaline phosphatase assay (Saos-2 cells), phenol library; conditions: 1 nM; control (no treatment) fixed at 100%
Method: We also investigated the effect of selected phenol derivatives on alkaline phosphatase activity in Saos-2 cells (FIG. 13B).
Saos-2 cells were used similarly as reported in the cell proliferation assay. The cells were seeded at a density of 2 000 cells/well and treated for 3 days with each compound to be tested. The alkaline phosphatase (ALP) activity was measured using the Sensolyte® pNPP Alkaline Phosphatase Assay Kit *Colorimetric* (AnaSpec, Freemont, Calif.) following the manufacturer's protocol. Briefly, after three days of treatment, the cells were washed twice with washing buffer (provided with the kit) and lysed with 0.2% Triton X-100. The cell lysates were centrifuged and the supernatants were used to determine ALP activity. The supernatants were deposed in a 96-well plate and incubated for 30 minutes with a p-nitrophenyl phosphate solution (provided with the kit). The absorbance at 405 nm was measured with a Thermo max microplate reader (Molecular Devices, Sunnyvale, Calif.). The control (culture media+DMSO) is set to 100% of alkaline phosphatase activity.

[2] = tested on: alkaline phosphatase (ALP) activity in Saos-2 cells; assay: Alkaline phosphatase (ALP) activity in Saos-2 cells
Method: ALP is an enzyme that releases inorganic phosphate from different intracellular substrates such as pyrophosphate and pyridoxal 5′-phosphate.^63 The inorganic phosphate is used in the formation of hydroxyapatite crystals which are then inserted in the extracellular protein scaffold to form the solid part of bone tissue.
Saos-2 cells were treated similarly as reported in the cell proliferation assay. The cells were seeded at a density of 2 000 cells/well and were treated with the inhibitors and the reference compounds for 3 days. The alkaline phosphatase (ALP) activity was measured using Sensolyte® pNPP Alkaline Phosphatase Assay Kit *Colorimetric* (AnaSpec, Fremont, Calif.) following the manufacturer's protocol. Briefly, after the 3 days of treatment, the cells were washed twice with washing buffer (provided with the kit) and lysed with 0.2% Triton X-100. The cell lysates were centrifuged and the supernatants were used to determine the ALP activity. The supernatants were deposed in a 96-well plate and incubated 30 min with a p-nitrophenyl phosphate solution (provided with the kit). The absorbance at 405 nm was measured with a Thermo max microplate reader (Molecular Devices, Sunnyvale, Calif.). The control (culture media+DMSO) is set to 100% of alkaline phosphatase activity.

[3] = tested on: osteoblast-like Saos-2 cells; assay: Saos-2 cell proliferation, MTS; conditions: in percentage of control (100%; 0.1 nM of estradiol)
Description: First, we wanted to evaluate their effect on cell proliferation. […] This is outlined in FIG. 8A. […] One of the main roles of osteoblasts in bone tissue is to construct a calcified extracellular matrix.^15 As such, bone formation is not principally due to osteoblasts proliferation but rather osteoblasts maturation into mature osteocytes. […] This is outlined in FIG. 8B.
CellTitter 96® Aqueous One Solution Cell Proliferation Assay was used as an indirect colorimetric measurement of cell proliferation according to the manufacturer's instructions. Briefly, after the treatments, 20 μL of MTS solution was added to each well (100 μL) of the plates and incubated at 37° C. for 2 h (Saos-2) or 4 h (T-47D). The absorbance at 490 nm was then measured with a Thermo max microplate reader (Molecular Devices, Sunnyvale, Calif.). The control (culture media+DMSO) is set to 100% of cell proliferation.
Saos-2 cells were suspended in phenol-red free McCoy's 5A medium supplemented with 10% charcoal-stripped FBS, penicillin (100 IU/mL) and streptomycin (100 μg/mL). The cells were seeded in 96-well plates at a density of 3 000 cells/well and allowed to attach. After 24 h, the inhibitors and the reference compounds diluted in fresh culture media were added to the wells and replaced every 2 days for 7 days of treatment.

MCF-7 (ER+) cells = assay: Proliferative (estrogenic) activity on MCF-7 (ER+) cells; conditions: 0.1 nM; 7 days; control 100%
Method: The next step was to determine the presence or absence of estrogenic activity. To do so, cell proliferative assays were carried out on MCF-7 cells. […] Phenols of the corresponding sulfamate library 3-EO and 4-EO are referred to as library 3′-EO and library 4′-EO, respectively.
This cell assay was carried out according to a procedure previously described to determine the estrogenic activity of enzyme inhibitors on the growth of estrogen-sensitive MCF-7 cells.^77 All chemicals tested were first dissolved in DMSO and subsequent dilutions were done in the proper cell culture media. The final concentration of DMSO in the culture medium was 0.1% or less. 3-(4,5-dimethylthiazol-2-yl)-5-(3-carboxymethoxyphenyl)-2-(4-sulfophenyl)-2-H-tetrazolium (MTS) was used as an indirect colorimetric measurement of cell proliferation according to the manufacturer's instructions (Promega, Madison, Wis.). At the end of the treatments, 20 μL of MTS solution was added to each well (100 μL) and the MCF-7 cells were incubated 4 h at 37° C. The absorbance at 490 nm was then measured with a Thermo max microplate reader (Molecular Devices, Sunnyvale, Calif.). The control (culture media+DMSO) is set to 100% of cell proliferation.

T-47D cells = assay: T-47D cell proliferation (estrogenicity / cytotoxicity), MTS

C[C@]12CC[C@@H]3c4ccc(O)cc4CC[C@H]3[C@@H]1CC[C@@H]2O [E2, 17β-estradiol, reference compound]
ALP activity in Saos-2 cells [1]: 148% | Bone cells Saos-2 (ER+) SERM effect Alkaline phosphatase activity (%) ([2]; 0.1 nM): 100% | stimulation of ALP activity in presence of ICI-164,384 or MPP + PHTPP ([2]; 0.1 nM compound, antagonists 1 μM, 3 days): completely blocked the stimulation | Bone cells Saos-2 (ER+) SERM effect Proliferative activity (%) ([3]; 0.1 μM): 100% | Bone cells Saos-2 (ER+) SERM effect Proliferative activity (%) ([3]; 1 μM): 100% | proliferation of MCF-7 (ER+) cells (MCF-7 (ER+) cells): 176% | T-47D cell proliferation (T-47D cells; 0.1 nM, control 100%, 7 days): approximately 160% | Breast cancer cells T-47D (ER+) Agonist activity (%) (T-47D cells; 1 μM, in % of control (100%; 0.1 nM of estradiol)): 100%
